Assays:
E. coli T-7 = experiment: Minimal inhibitory concentration (M.I.C.), agar dilution method; format: cell-based, Escherichia coli; details: TSA, inoculum 10^7 /ml
Excerpt: (§1) (a) Determination of minimal inhibitory concentrations (Tables 1 to 8):
(§2) Procedure: agar dilution method

E. coli NIHJ JC-2 = experiment: as above; format: cell-based, Escherichia coli; details: TSA, inoculum 10^7 /ml
Excerpt: as §1, §2

E. cloacae TN 1282 = experiment: as above; format: cell-based, Enterobacter cloacae; details: TSA, inoculum 10^7 /ml
Excerpt: as §1, §2

P. morganii IFO 3168 = experiment: as above; format: cell-based, Proteus morganii; details: TSA, inoculum 10^7 /ml
Excerpt: as §1, §2

E. coli 0-111 = experiment: as above; format: cell-based, Escherichia coli; details: TSA, inoculum 10^7 /ml
Outline: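 MIC against E. coli O-111 was determined by agar dilution.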

P. vulgaris GN 4413 = experiment: as above; format: cell-based, Proteus vulgaris; details: TSA, inoculum 10^7 /ml
Excerpt: as §1, §2

P. vulgaris IFO 3988 = experiment: as above; format: cell-based, Proteus vulgaris; details: TSA, inoculum 10^7 /ml
Excerpt: as §1, §2

S. marcescens TN 24 = experiment: as above; format: cell-based, Serratia marcescens; details: TSA, inoculum 10^7 /ml
Excerpt: as §1, §2

S. marcescens IFO 12648 = experiment: as above; format: cell-based, Serratia marcescens; details: TSA, inoculum 10^7 /ml
Excerpt: as §1, §2

P. rettgeri GN4733 = experiment: as above; format: cell-based, Proteus rettgeri; details: TSA, inoculum 10^7 /ml
Excerpt: as §1, §2

P. rettgeri TN 338 = experiment: as above; format: cell-based, Proteus rettgeri; details: TSA, inoculum 10^7 /ml
Excerpt: as §1, §2

P. mirabilis GN 4359 = experiment: as above; format: cell-based, Proteus mirabilis; details: TSA, inoculum 10^7 /ml
Excerpt: as §1, §2

C. freundii GN 99 = experiment: as above; format: cell-based, Citrobacter freundii; details: TSA, inoculum 10^7 /ml
Excerpt: as §1, §2

C. freundii GN 1706 = experiment: as above; format: cell-based, Citrobacter freundii; details: TSA, inoculum 10^7 /ml
Excerpt: as §1, §2

Escherichia coli 0-111 = experiment: Therapeutic effects in infected mice; format: in vivo, Male mice ICR/SLC; details: Escherichia coli, 0111, sc, 168 h
Experimental: The preliminary therapeutic effects of some cephalosporin derivatives of this invention as determined in infected mice were as follows.
Determination of therapeutic effects in infected mice
Test animals: Male mice ICR/SLC
Each compound was administered to a group of 5 animals.
Route of infection: Intraperitoneally infected with Escherichia coli 0-111
Period of observation: 7 days.
Method of administration:
One mg of each test compound was dissolved in 100 ml of sterile physiological saline and a dilution series of the same solution was prepared. These solutions were respectively injected subcutaneously into mice immediately after infection, in a single dose of 0.2 ml each.

S. aureus 209P = experiment: Minimal inhibitory concentration (M.I.C.), agar dilution method; format: cell-based, Staphylococcus aureus; details: TSA, inoculum 10^7 /ml
Excerpt: as §1, §2

S. aureus 1840 = experiment: as above; format: cell-based, Staphylococcus aureus; details: TSA, inoculum 10^7 /ml
Excerpt: as §1, §2

K. pneumoniae GN 3835 = experiment: as above; format: cell-based, Klebsiella pneumoniae; details: TSA, inoculum 10^7 /ml
Excerpt: as §1, §2

K. pneumoniae DT = experiment: as above; format: cell-based, Klebsiella pneumoniae; details: TSA, inoculum 10^7 /ml
Excerpt: as §1, §2

SMILES	minimal inhibitory concentration (M.I.C.) (E. coli T-7)	minimal inhibitory concentration (M.I.C.) (E. coli NIHJ JC-2)	minimal inhibitory concentration (M.I.C.) (E. cloacae TN 1282)	minimal inhibitory concentration (M.I.C.) (P. morganii IFO 3168)	minimal inhibitory concentration (M.I.C.) (E. coli 0-111)	minimal inhibitory concentration (M.I.C.) (P. vulgaris GN 4413)	minimal inhibitory concentration (M.I.C.) (P. vulgaris IFO 3988)	minimal inhibitory concentration (M.I.C.) (S. marcescens TN 24)	minimal inhibitory concentration (M.I.C.) (S. marcescens IFO 12648)	minimal inhibitory concentration (M.I.C.) (P. rettgeri GN4733)	minimal inhibitory concentration (M.I.C.) (P. rettgeri TN 338)	minimal inhibitory concentration (M.I.C.) (P. mirabilis GN 4359)	minimal inhibitory concentration (M.I.C.) (C. freundii GN 99)	minimal inhibitory concentration (M.I.C.) (C. freundii GN 1706)	ED50 (Escherichia coli 0-111) [mg/kg]	minimal inhibitory concentration (M.I.C.) (S. aureus 209P)	minimal inhibitory concentration (M.I.C.) (S. aureus 1840)	minimal inhibitory concentration (M.I.C.) (K. pneumoniae GN 3835)	minimal inhibitory concentration (M.I.C.) (K. pneumoniae DT)
CCCCNC(=O)O/N=C(\C(=O)NC1C(=O)N2C(C(=O)O)=C(COC(N)=O)CSC12)c1csc(=N)[nH]1 (stereo not drawn) [Example II - 21, sodium 7-[2-(2-imino-4-thiazolin-4-yl)-2-butylcarbamoyloximinoacetamido]-3-carbamoyloxymethyl-3-cephem-4-carboxylate (syn-isomer)]	3.13	0.39	25	1.56	0.05	50	0.39	25	6.25	0.39	≤ 0.012	0.2	0.39	0.78	0.1	1.56	3.13	0.39	0.1
CNC(=O)O/N=C(\C(=O)NC1C(=O)N2C(C(=O)O)=C(CSc3nnnn3C)CSC12)c1csc(=N)[nH]1 (stereo not drawn) [Example II - 4, sodium 7-[2-(2-imino-4-thiazolin-4-yl)-2-methylcarbamoyloximinoacetamido]-3-(1-methyl-1H-tetrazol-5-yl)thiomethyl-3-cephem-4-carboxylate (syn-isomer)]	1.56	0.2	1.56	0.1	0.024	12.5	0.1	0.78	1.56	0.1	≤ 0.012	0.1	0.1	0.39	0.025	1.56	1.56	0.39	0.05
O=C(Cc1cccs1)N[C@@H]1C(=O)N2C(C(=O)[O-])=C(C[n+]3ccccc3)CS[C@H]12 [Cephaloridine, 7-(2-thienylacetamido)-3-(1-pyridyl)methyl-3-cephem-4-carboxylic acid betaine, reference compound]	> 100	3.13	> 100	> 100	1.56	> 100	6.25	> 100	> 100	> 100	1.56	6.25	50	> 100	2	0.05	0.39	12.5	1.56
CNC(=O)O/N=C(\C(=O)NC1C(=O)N2C(C(=O)O)=C(COC(N)=O)CSC12)c1csc(=N)[nH]1 (stereo not drawn) [Example II - 3, sodium 7-[2-(2-imino-4-thiazolin-4-yl)-2-methylcarbamoyloximinoacetamido]-3-carbamoyloxymethyl-3-cephem-4-carboxylate (syn-isomer)]	0.39	0.1	6.25	0.78	0.024	50	0.05	6.25	3.13	0.1	≤ 0.012	0.05	0.1	0.2	0.016	3.13	3.13	0.1	0.024
CCCNC(=O)O/N=C(\C(=O)NC1C(=O)N2C(C(=O)O)=C(C)CSC12)c1csc(=N)[nH]1 (stereo not shown) [Example II - 15]	25	6.25	> 100	50	3.13	50	12.5	> 100	> 100	0.39	0.1	3.13	12.5	12.5	–	12.5	12.5	6.25	3.13
CNC(=O)O/N=C(\C(=O)NC1C(=O)N2C(C(=O)O)=C(CSc3nnc(C)s3)CSC12)c1csc(=N)[nH]1 (stereo not drawn) [Example II - 5, sodium 7-[2-(2-imino-4-thiazolin-4-yl)-2-methylcarbamoyloximinoacetamido]-3-(2-methyl-1,3,4-thiadiazol-5-yl)thiomethyl-3-cephem-4-carboxylate (syn-isomer)]	3.13	0.39	1.56	0.39	0.1	12.5	0.39	0.78	3.13	0.78	≤ 0.05	0.78	0.39	1.56	–	3.13	3.13	0.78	0.1
CC(=O)OCC1=C(C(=O)[O-])N2C(=O)C(NC(=O)Cc3cccs3)[C@H]2SC1.[Na+] (stereo partly shown) [Cephalothin, sodium 7-(2-thienylacetamido)-3-acetoxymethyl-3-cephem-4-carboxylate, reference compound]	100	12.5	> 100	> 100	3.13	> 100	1.56	> 100	> 100	> 100	1.56	3.13	25	> 100	–	0.20	0.39	12.5	1.56

Source: patent publication US4200575A, “7[(2-Thiazolyl)-2-(oxoimino)acetamido]cephalosporin derivatives” (Takeda Chemical Industries, Ltd., priority 1977, dated 1980)
